First: CSc1nn2c(N3CCN(C)CC3)nc(C)nc2c1S(=O)(=O)c1ccccc1
Second: Cc1cc(COc2ccc(C(=O)NC[C@@H](C(=O)NO)N3CCN(S(C)(=O)=O)CC3)cc2)c2ccccc2n1
The melting point of the first is lower: 169 to 171 °C for the first, 175 °C for the second.

`Cc1nn(C)c(S(N)(=O)=O)c1[N+](=O)[O-]` and `C=CCn1nc(C)c(CC(=O)O)c1C` cannot be ordered by melting point: 138 to 140 °C for the first, 139 to 140 °C for the second.

First: O=C(Nc1ccc(OCCN2CCCC2=O)c2ccccc12)c1cc(F)cc(N2CCOCC2)c1
Second: O=C(O)c1ccccc1Nc1ccc(CCc2ccc(N3CC[C@@H]4CCCC[C@H]4C3)cc2)cc1
The melting point of the first is lower: 172 to 173 °C for the first, 203 to 206 °C for the second.

`C[C@H]1[C@H](N)CN1c1cc2c(cc1F)c(=O)c(C(=O)O)cn2C(C)(C)C` (relative stereo) and `CCNC1CN(c2c(F)cc3c(=O)c(C(=O)O)cn(C4CC4)c3c2F)C1` cannot be ordered by melting point: 225 to 227 °C for the first, 222 to 227 °C for the second.

First: CC(C)C(C(=O)O)c1onc(-c2ccccc2)c1-c1ccc(S(N)(=O)=O)cc1 (stereo not drawn)
Second: CC(Cc1ccc(OCc2ccccc2)cc1)C(=O)O (stereo not drawn)
The melting point of the first is higher: 148 to 149 °C for the first, 93 to 95 °C for the second.

Compared with `CCCC(=O)OCC1OC(n2cnc3c(OC)nc(N)nc32)C(O)C1O` (stereo not drawn), `COc1nc(N)nc(-c2ccccc2)c1-c1ccc(=O)n(C(C)C)n1` is higher in melting point: 105 °C for the first, 230 to 233 °C for the second.

`CN(C)C=Nc1ncc2cc(-c3c(Cl)cccc3Cl)c(N=CN(C)C)nc2n1` and `O=C1N(CO)c2cccc(Cl)c2C1(CO)c1cc2c(cc1O)OCO2` (stereo not drawn) cannot be ordered by melting point: 269 to 272 °C for the first, > 210 °C for the second.

Compared with `COc1cc(C=CC(=O)Nc2c(-c3ccccc3Cl)c3cc(C)c(C)cc3n(C)c2=O)cc(OC)c1OC(C)=O`, `Cc1ccc2c(c1)c1cc(-c3ccc(Cl)cc3Cl)c(=O)n(C)c1n2CCCN1C(=O)c2ccccc2C1=O` is lower in melting point: 259 to 260 °C for the first, 249 °C for the second.

Compared with `CC=Cc1cccc2c(=O)c(C)c(NC(=O)OC(C)(C)C)oc12`, `CCCC(CC(=O)NC(=O)OC(C)(C)C)Nc1ccccc1` (stereo not drawn) is lower in melting point: 200 to 203 °C for the first, 103 to 104 °C for the second.

First: C=C(c1ccc(I)cc1)C(O)(Cn1cncn1)c1ccccc1F (stereo not drawn)
Second: O=C(c1cnc2ccccc2n1)N1CC2CC2(c2ccc(Cl)cc2)C1 (stereo not drawn)
The melting point of the first is higher: 117 to 118 °C for the first, 90 to 105 °C for the second.

Compared with `Nc1cccc(-c2ccc(C3CCNC3=O)cc2F)n1` (stereo not drawn), `Nc1cccc(-c2ccc(CCN3C4CCC3CC(N)C4)cc2)n1` (stereo not drawn) is higher in melting point: 185 to 188 °C for the first, > 300 °C for the second.

Compared with `OC(c1ccc(OC(F)(F)F)cc1)(c1ccc(OC(F)(F)F)cc1)C1CCN(Cc2c[nH]c3cccc(F)c23)CC1`, `CN1CCC(c2c[nH]c3ccc(C(=O)c4ccc(OC(F)(F)F)cc4)cc23)CC1` is higher in melting point: 76 to 88 °C for the first, 172 to 175 °C for the second.

First: CNc1ncnc(N)c1N
Second: CCCc1ccnc(C(N)=O)c1N
The melting point of the first is higher: 180 to 185 °C for the first, 139 to 141 °C for the second.

First: CCN(CC)C(=O)OCC1CN(C(=S)c2cc(OC)c(OC)c(OC)c2)CCN1C(=O)c1cc(OC)c(OC)c(OC)c1 (stereo not drawn)
Second: COc1cc(-c2ncn(-c3cc(OC)c(OC)c(OC)c3)c2-c2cc(OC)c(OC)c(OC)c2)cc(OC)c1OC
The melting point of the first is lower: 106 °C for the first, 169 to 171 °C for the second.

First: CN(C(=O)CCN)c1nnc(-c2cccnc2)s1
Second: COC(=O)c1ccc(C(=O)Nc2cccc(Nc3nc(-c4cccnc4)cs3)c2)cc1
The melting point of the first is lower: 110 to 112 °C for the first, 237 °C for the second.

Compared with `CCCCc1nn(-c2ccc(C(F)(F)F)cn2)cc1CO`, `CC1(C)C=C(c2ccccn2)c2cc(C(F)(F)F)ccc2OC1` is lower in melting point: 110 to 111 °C for the first, 90 °C for the second.

First: COc1ccc2oc(C(=O)OCC(C)(C)C(O)C(C)(C)C)cc2c1 (stereo not drawn)
Second: COc1ccc2cc([C@H](C)C(=O)OC/C=C\CO)ccc2c1
The melting point of the first is higher: 114 °C for the first, 69 to 71 °C for the second.

First: O=C(O)Cn1nc(Br)nc1Br
Second: Cc1cc(C)nc(OC(C)C(=O)O)n1 (stereo not drawn)
The melting point of the first is higher: 147 to 152 °C for the first, 117 °C for the second.

First: C#CC(=O)c1cc(C(C)(C)C)c(O)c(C(C)(C)C)c1
Second: CC1CC(=Cc2cc(C(C)(C)C)c(O)c(C(C)(C)C)c2)C(=O)N1C(N)=O (stereo not drawn)
The melting point of the first is lower: 100 to 101 °C for the first, 195 to 196 °C for the second.

First: Cc1cc(C)n(C)c1C(=O)C(C#N)C(=O)Nc1ccccc1 (stereo not drawn)
Second: N#CC(NC(=O)c1ccccc1)n1cccn1 (stereo not drawn)
The melting point of the first is lower: 106 to 107 °C for the first, 169 to 174 °C for the second.

Compared with `NCc1ccn(C2=CC3=C(CC2)CCc2[nH]c(=O)c(=O)n(OCC(=O)O)c23)c1`, `COc1cc(OC)c2c(=O)[nH]c(-c3ccc(O)c(CCO)c3)nc2c1` is lower in melting point: > 300 °C for the first, 249 to 250 °C for the second.

First: CSc1cccc(Oc2ncc(F)cc2C(=O)N[C@H]2CC[C@@H](CO)CC2)c1
Second: COc1ncc(C(=O)O)cc1OC1CCCC1
The melting point of the first is lower: 123 to 126 °C for the first, 191 to 192 °C for the second.

First: CSC(=S)N1Cc2[nH]c3ccccc3c2CC1CCO (stereo not drawn)
Second: O=C(C=Cc1cccnc1)N1CCc2c([nH]c3ccccc23)C1c1ccc2c(c1)OCO2 (stereo not drawn)
The melting point of the first is lower: 166 to 167 °C for the first, 240 °C for the second.

First: Cc1ccc2[nH]c(=O)n(CCS)c(=O)c2c1
Second: CCCCCCc1cccc(N2CC(=O)NC(=O)N2)c1
The melting point of the first is higher: 309 to 311 °C for the first, 95 to 99 °C for the second.

Compared with `O=c1[nH]c(=S)nc2n1C(c1ccc(F)cc1)CO2` (stereo not drawn), `Cn1nnnc1CC(O)(c1ccc(F)cc1)c1ccc(F)cc1` is lower in melting point: 211 to 217 °C for the first, 116 to 118 °C for the second.

First: O[C@H]1c2cc(OC(c3ccccc3)c3ccccc3)ccc2OC[C@H]1Oc1cccnc1 (relative stereo)
Second: CCCCc1nc(SC)c(C(=O)O)n1Cc1ccc(-c2ccccc2S(=O)(=O)NC(=O)C(c2ccccc2)c2ccccc2)cc1
The melting point of the first is lower: 169 to 170 °C for the first, 205 °C for the second.

Compared with `CCNc1ccc(NC(C)=O)c(C)c1`, `COC(=O)c1sc2cc(OC)ccc2c1C` is higher in melting point: 102 to 103 °C for the first, 118 to 120 °C for the second.

Compared with `O=C1c2ccccc2C(=O)N1CCCCCCSc1ccc2ccccc2c1`, `O=C(O)C(=O)c1ccc(OCCOc2ccc3cc4ccccc4cc3c2)cc1` is higher in melting point: 109 to 110 °C for the first, 213 to 214 °C for the second.

Compared with `CC(=O)OC12Oc3cc(C(C)C)ccc3C1(OC(C)=O)C(=O)c1ccccc12` (stereo not drawn), `COC(=O)C(C)c1ccc(-c2ccccc2[N+](=O)[O-])cc1` (stereo not drawn) is lower in melting point: 138 to 140 °C for the first, 83 to 86 °C for the second.

Compared with `CCCCCCCCCCCCCCCCCCOc1cc(OCCCCC(=O)OC)cc(N(CC(=O)OCc2ccccc2)CC(=O)OCc2ccccc2)c1`, `CC(C)[C@H](NC(=O)OCc1csc(N(C)C)n1)C(=O)N[C@@H](Cc1ccccc1)C[C@H](O)[C@H](Cc1ccccc1)NC(=O)OCc1cncs1` is higher in melting point: 48 to 50 °C for the first, 162 to 165 °C for the second.

First: COc1cc(C2CCN(C)CC2)ccc1Nc1ncc2ccc(-c3ccccc3OC)n2n1
Second: O=C1N(c2c(Cl)cccc2Cl)Cc2cnc(Nc3ccccc3)nc2N1c1ccccc1
The melting point of the first is lower: 71 to 84 °C for the first, 138 °C for the second.

First: CCCCN(CCCC)Cc1nc(-c2ncn3c2[C@@H]2CCN2C(=O)c2c(Cl)cccc2-3)no1
Second: CCN(CC)c1ccc(-c2nnc(Nc3ccc(Br)c(Cl)c3)s2)cc1
The melting point of the first is lower: 120 to 125 °C for the first, 232 to 233 °C for the second.

First: C(=C\c1nc2ccccc2s1)/c1cccc(NCCCc2nnn[nH]2)c1
Second: N#Cc1cc(C(F)(F)F)ccc1Nc1ccccc1[N+](=O)[O-]
The melting point of the first is higher: 168 to 169 °C for the first, 160 to 161 °C for the second.

First: O=C(CCCN1CCC(NC(=O)c2ccccc2)CC1)c1ccccc1
Second: O=C(O)c1cccc(COc2ccccc2Cl)c1COc1ccccc1Cl
The melting point of the first is higher: 143 to 144 °C for the first, 107 to 109 °C for the second.

First: Nc1noc(C23CCCN(CC2)C3)n1 (stereo not drawn)
Second: CC12CCCc3c1n(c1ccccc31)C(=O)CC2 (stereo not drawn)
The melting point of the first is higher: 197 to 199 °C for the first, 93 to 95 °C for the second.

Compared with `COc1ccc(C(=O)N(C)c2ccc(C(=O)O)cc2)cc1`, `COc1ccc(-c2ccc(C(N)=O)cc2)cc1Br` is higher in melting point: 157 to 160 °C for the first, 246 to 250 °C for the second.

First: Cc1ccc(S(=O)(=O)N2CC2CBr)cc1 (stereo not drawn)
Second: Cc1ccc(N2CCN(Cc3c[nH]c4ncccc34)CC2)cc1
The melting point of the first is lower: 75 to 78 °C for the first, 220 to 222 °C for the second.

Compared with `OC1CSC(Oc2cncc(C(F)(F)F)c2)C(O)C1O` (stereo not drawn), `CC(=O)n1ncc2c(O)cc(C)cc21` is higher in melting point: 160 to 161 °C for the first, 191 to 192 °C for the second.

Compared with `COc1cc2c(c3c1OC(C)(C)C3)C(c1cccc(-c3ccc(NC=O)cc3)c1)=NC(C)(C)C2`, `CN1CCN(Cc2ccc(NC(=O)C#Cc3ccc(-c4ccc(Cl)cc4)cc3)cc2)CC1` is higher in melting point: 129 to 133 °C for the first, 182 to 185 °C for the second.

Compared with `Nc1c(CC(=O)O)cccc1Oc1cc(Cl)cc(Cl)c1`, `Nc1nc(N)c(-c2cc(Cl)cc(Cl)c2Cl)c(CO)n1` is lower in melting point: 113 to 115 °C for the first, 101 to 105 °C for the second.

Compared with `Cc1noc(NS(=O)(=O)c2c(C)sc3ccccc23)c1C`, `O=C1c2ccccc2C(=O)c2sc(-c3cc(Br)co3)nc21` is higher in melting point: 174 to 176 °C for the first, > 260 °C for the second.

First: COc1cc(Oc2ccc(S(C)(=O)=O)nc2)cc2cc(C3=NCC(CC(=O)N4CCOCC4)S3)[nH]c12 (stereo not drawn)
Second: COc1ccc(C=CC(=O)N2CCN(C(=O)C=Cc3ccc(OC)c(C(F)F)c3)CC2)cc1C(F)F
The melting point of the first is lower: 148 to 149 °C for the first, 259 to 261 °C for the second.

`CCCc1nc(SC)c(C(O)(C(=O)O)C(C)C)n1Cc1ccc(-c2ccccc2S(=O)(=O)NC(=O)NCc2ccccc2)cc1` (stereo not drawn) and `CC(C)(OCc1nn(C(c2ccccc2)(c2ccccc2)c2ccccc2)c2ccccc12)C(=O)O` cannot be ordered by melting point: 180 °C for the first, 179 to 180 °C for the second.

First: CC(C)CCCC(C)C1CCC2(C#N)C3C=CC4C(C)(C)C(OC(=O)c5ccccc5)CCC4(C)C3CCC12C (stereo not drawn)
Second: CCCC(CCC)N(C[C@H]1CCC[C@H](CN(C(=O)Nc2ccc(N(C)C)cc2)C(CCC)CCC)C1)C(=O)Nc1ccc(N(C)C)cc1 (relative stereo)
The melting point of the first is higher: 232 to 233 °C for the first, 122 to 126 °C for the second.

First: CCCCCCC(N)C(C)O (stereo not drawn)
Second: CCCCC(O)c1ccc2cc(O)ccc2c1 (stereo not drawn)
The melting point of the first is lower: 81 to 86 °C for the first, 109 to 111 °C for the second.

Compared with `CC(C)Nc1c(-c2c(F)cc(F)cc2F)c(Cl)nc2ncccc12`, `CC[N+]1([O-])CCC(O)(c2cc(F)cc(Cl)c2)C1` (stereo not drawn) is lower in melting point: 193 °C for the first, 158 to 160 °C for the second.

First: CCCCN1CCCC1Cc1cccc(NC(N)=O)c1 (stereo not drawn)
Second: Cc1nn(Cc2ccccc2)c2c1C(=O)CC(C)(C)C2
The melting point of the first is lower: 80 to 83 °C for the first, 133 to 134 °C for the second.

Compared with `CN(C)c1ccc(C(=CC(C=C(c2ccc(N(C)C)cc2)c2ccc(N(C)C)cc2)c2ccc(N(C)C)cc2)c2ccc(N(C)C)cc2)cc1`, `COC(=O)C1=C(Cl)/C(=N/OS(C)(=O)=O)CC(c2ccc(Cl)c(OC)c2F)N1` (stereo not drawn) is lower in melting point: 215 to 220 °C for the first, 64 to 66 °C for the second.

Compared with `CCN1C[C@@H](C(=O)OC(C)(C)C)NC1=O`, `Cc1nc(O)sc1CC(C)Cl` (stereo not drawn) is higher in melting point: 86 to 87 °C for the first, 91 to 93 °C for the second.

Source: a melting point compilation (Tetko et al.; mined from patent text by program, amines drawn as free bases though some values may be those of a salt)
